Source: patent US9982005B2, “Macrolides and methods of their preparation and use” (President and Fellows of Harvard College, priority 2013, dated 2018)
≈ marks a conversion by molar mass, not a printed value. Like-named read-outs stand apart in the source and are kept apart here.

Assays:
Assay type in all cases: cell-based
[1] = test system: SA101 S. aureus ATCC29213; experiment: broth dilution MIC, S. aureus SA101; details: Staphylococcus aureus, ATCC29213, SA101 S. aureus ATCC29213; read-out: MIC
Procedure, shortened: (§1)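 Broth dilution (CLSI standard) gave the minimum inhibitory concentrations. Resistance genotypes in the panel can be constitutive or inducible.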

[2] = test system: SA183 S. aureus ermA positive msrA unknown; experiment: broth dilution MIC, S. aureus SA183; details: Staphylococcus aureus
Description: (§2) We have collected MIC data for a total of 50 novel macrolides that this platform has produced against over 21 unique strains of B. subtilis, E. coli, S. aureus, S. pneumoniae, and H. influenzae, including several multidrug-resistant strains, with a special focus on macrolide resistant mechanisms (vide supra). Azithromycin was included as a control macrolide. CLSI standard procedures for broth dilution MIC determination were used. […] These genotypes can be constitutive or inducible. The finding that C4-epi (unnatural) isomers of the “azaketolide” macrolide class have enhanced activities relative to C4 natural isomers is very exciting.

[3] = test system: SA418 S. aureus ermA negative msrA positive; experiment: broth dilution MIC, S. aureus SA418; details: Staphylococcus aureus
Description: as §2

[4] = test system: SA506 S. aureus ermA positive msrA unknown; experiment: broth dilution MIC, S. aureus SA506; details: Staphylococcus aureus
Description: as §2

[5] = test system: SA557 S. aureus ermA unknown msrA positive; experiment: broth dilution MIC, S. aureus SA557; details: Staphylococcus aureus; SA557 S. aureus ermA unknown msrA positive; read-out: MIC
Description: as §2

[6] = test system: SA1707 S. aureus ermA negative msrA positive; experiment: broth dilution MIC, S. aureus SA1707; details: Staphylococcus aureus
Description: as §2

[7] = test system: SA1708 S. aureus ermA positive msrA negative; experiment: broth dilution MIC, S. aureus SA1708; details: Staphylococcus aureus
Description: as §2

[8] = test system: Spn 106 S. pneumonia ATCC49619; experiment: broth dilution MIC, S. pneumoniae Spn 106; details: Streptococcus pneumoniae; Spn 106 S. pneumonia ATCC49619; read-out: MIC
Description: as §2

[9] = test system: Spn160 S. pneumoniae ermB unknown mefA positive; experiment: broth dilution MIC, S. pneumoniae Spn160; details: Streptococcus pneumoniae
Description: as §2

[10] = test system: Spn1509 S. pneumoniae ermB positive mefA negative; experiment: broth dilution MIC, S. pneumoniae Spn1509; details: Streptococcus pneumoniae; Spn1509 S. pneumoniae ermB positive mefA negative; read-out: MIC
Description: as §2

[11] = test system: Spn1533 S. pneumoniae ermB positive mefA positive; experiment: broth dilution MIC, S. pneumoniae Spn1533; details: Streptococcus pneumoniae
Description: as §2

[12] = test system: Spn1537 S. pneumoniae ermB positive mefA positive; experiment: broth dilution MIC, S. pneumoniae Spn1537; details: Streptococcus pneumoniae
Description: as §2

[13] = test system: Spn1427 S. pneumoniae ermB positive mefA negative; experiment: broth dilution MIC, S. pneumoniae Spn1427; details: Streptococcus pneumoniae
Description: as §2

[14] = test system: HI175 H. influenzae ATCC49247; experiment: broth dilution MIC, H. influenzae HI175; details: Haemophilus influenzae
Description: as §2

[15] = test system: HI281 H. influenzae; experiment: broth dilution MIC, H. influenzae HI281; details: Haemophilus influenzae
Description: as §2

[16] = test system: EC107 E. coli ATCC25922; experiment: broth dilution MIC, E. coli EC107; details: Escherichia coli, read-out: MIC
Procedure, shortened: as §1

[17] = test system: EC878 E. coli tolC; experiment: broth dilution MIC, E. coli EC878; details: Escherichia coli
Procedure, shortened: as §1

[18] = test system: EC882 E. coli imp; experiment: broth dilution MIC, E. coli EC882; details: Escherichia coli
Procedure, shortened: as §1

[19] = test system: BS1723 B. subtilis BS168 WT wild type; experiment: broth dilution MIC, B. subtilis BS1723; details: Bacillus subtilis, BS1723 B. subtilis BS168 WT wild type; read-out: MIC
Procedure, shortened: as §1

[20] = test system: BS1725 B. subtilis ermC; experiment: broth dilution MIC, B. subtilis BS1725; details: Bacillus subtilis, BS1725 B. subtilis ermC (+ery)
Procedure, shortened: as §1

[21] = test system: E. coli strains; experiment: MIC against E. coli strains (Table M7); details: Escherichia coli, ATCC25922, E. coli ATCC 25922
Procedure, shortened: as §1

[22] = test system: S. aureus strains; experiment: MIC against S. aureus strains (Table M7); details: Staphylococcus aureus
Procedure, shortened: as §1

[23] = test system: S. pneumoniae strains; experiment: MIC against S. pneumoniae strains (Tables M7, M8); details: Streptococcus pneumoniae
Description: CLSI standard procedures for broth dilution MIC determination were used. […] These genotypes can be constitutive or inducible.

[24] = test system: E. faecalis strains; experiment: MIC against E. faecalis strains (Table M8); details: Enterococcus faecalis, E. faecalis 29212
[25] = test system: A. baumannii strains; experiment: MIC against A. baumannii strains (Table M8); details: Acinetobacter baumannii, BAA747, A. baumannii BAA747-1
[26] = test system: K. pneumoniae strains; experiment: MIC against K. pneumoniae strains (Table M8); details: Klebsiella pneumoniae, K. pneumoniae 10031
[27] = test system: H. influenzae strains; experiment: MIC against H. influenzae strains (Table M8); details: Haemophilus influenzae
Procedure, shortened: as §1

[28] = test system: S. aureus (Newman, clinical isolate); experiment: MIC, S. aureus Newman; details: Staphylococcus aureus, S. aureus (Newman, clinical isolate), round 1
Procedure, shortened: as §1

[29] = test system: E. coli (MC4100); experiment: MIC, E. coli MC4100; details: Escherichia coli, round 1, read-out: MIC
Procedure, shortened: as §1

[30] = Spn160 S. pneumoniae ermB unknown mefA positive, read-out: MIC
[31] = ATCC29213, S. aureus ATCC 29213, read-out: MIC S. aureus (ATCC 29213)
[32] = S. aureus 506, read-out: MIC S. aureus (506)
[33] = S. aureus 1708, read-out: MIC S. aureus (1708)
[34] = USA300, S. aureus USA300, read-out: MIC S. aureus (USA300)
[35] = S. pneumoniae 1509, read-out: MIC S. pneumoniae (1509)
[36] = S. pneumoniae 1533, read-out: MIC S. pneumoniae (1533)
[37] = S. pneumoniae 1537, read-out: MIC S. pneumoniae (1537)
[38] = read-out: MIC S. pneumoniae (49619)
[39] = H. influenzae 49247, read-out: MIC H. influenzae (49247)
[40] = H. influenzae 49766, read-out: MIC H. influenzae (49766)

Row | SMILES | MIC [1] | MIC [2] | MIC [3] | MIC [4] | MIC [5] | MIC [6] | MIC [7] | MIC [8] | MIC [9, 30] | MIC [10] | MIC [11] | MIC [12] | MIC [13] | MIC [14] | MIC [15] | MIC [9] | MIC [16] | MIC [17] | MIC [18] | MIC [19] | also measured
1 | CC[C@H]1OC(=O)[C@H](C)C(=O)C[C@@H](O[C@@H]2OC(C)CC(N(C)C)C2O)[C@](C)(OC)C[C@@H](C)C(=O)N[C@H](C)[C@H]2N(CCCCn3cc(-c4ccccn4)nn3)C(=O)O[C@]12C (stereo partly shown) [FSM-20739] | > 32 µg/mL | > 32 µg/mL | > 32 µg/mL | > 32 µg/mL | > 32 µg/mL | > 32 µg/mL | > 32 µg/mL | 32 µg/mL (≈ 39.3 µM) | > 32 µg/mL | > 32 µg/mL | > 32 µg/mL | > 32 µg/mL | > 32 µg/mL | > 32 µg/mL | 32 µg/mL (≈ 39.3 µM) |  |  |  |  |  | 
2 | CC[C@H]1OC(=O)[C@H](C)C(=O)[C@H](C)[C@@H](O[C@@H]2OC(C)CC(N(C)C)C2O)[C@](C)(OC)C[C@@H](C)C(=O)N[C@H](C)[C@H]2N(CCCCn3cc(-c4ccccn4)nn3)C(=O)O[C@]12C (stereo partly shown) [FSM-20781] | > 32 µg/mL | > 32 µg/mL | > 32 µg/mL | > 32 µg/mL | > 32 µg/mL | > 32 µg/mL | > 32 µg/mL | 8 µg/mL (≈ 9.66 µM) | > 32 µg/mL | > 32 µg/mL | > 32 µg/mL | > 32 µg/mL | > 32 µg/mL | > 32 µg/mL | 32 µg/mL (≈ 38.6 µM) |  |  |  |  |  | 
3 | CC[C@H]1OC(=O)[C@H](C)C(=O)[C@H](C)[C@@H](O[C@@H]2OC(C)CC(N(C)C)C2O)[C@](C)(OC)C[C@@H](C)CN[C@H](C)[C@H]2N(CCCCn3cc(-c4ccccn4)nn3)C(=O)O[C@]12C (stereo partly shown) [FSM-20706] | 2 µg/mL (≈ 2.46 µM) | > 32 µg/mL | 2 µg/mL (≈ 2.46 µM) | > 32 µg/mL | 2 µg/mL (≈ 2.46 µM) | 4 µg/mL (≈ 4.91 µM) | 4 µg/mL (≈ 4.91 µM) | 0.0156 to 0.0312 µg/mL (≈ 0.0192 to 0.0383 µM) |  | 0.5 to 2 µg/mL (≈ 0.614 to 2.46 µM) |  | > 32 µg/mL | > 32 µg/mL | 0.5 to 2 µg/mL (≈ 0.614 to 2.46 µM) | 4 µg/mL (≈ 4.91 µM) | 0.0625 to 0.125 µg/mL (≈ 0.0768 to 0.154 µM) | 8 µg/mL (≈ 9.83 µM) | 0.5 µg/mL (≈ 0.614 µM) | 0.0625 µg/mL (≈ 0.0768 µM) | 1 µg/mL (≈ 1.23 µM) | MIC [20]: 16 µg/mL (≈ 19.7 µM); MIC [21]: 8 µg/mL (≈ 9.83 µM); MIC [22, 31]: 2 µg/mL (≈ 2.46 µM); MIC [22, 32]: > 32 µg/mL; MIC [22, 33]: 1 µg/mL (≈ 1.23 µM); MIC [22, 34]: 2 µg/mL (≈ 2.46 µM); MIC ([23]; S. pneumoniae 160, read-out: MIC S. pneumonae (160)): 0.125 µg/mL (≈ 0.154 µM); MIC [23, 35]: 4 µg/mL (≈ 4.91 µM); MIC [23, 36]: > 32 µg/mL; MIC [23, 37]: > 32 µg/mL; MIC [23, 38]: ≤ 0.0625 µg/mL; MIC [24]: 0.25 µg/mL (≈ 0.307 µM); MIC [25]: 32 µg/mL (≈ 39.3 µM); MIC [26]: 4 µg/mL (≈ 4.91 µM); MIC [27, 39]: 0.5 µg/mL (≈ 0.614 µM); MIC [27, 40]: 2 µg/mL (≈ 2.46 µM)
4 | CC[C@H]1OC(=O)C(C)(F)C(=O)[C@H](C)[C@@H](O[C@@H]2OC(C)CC(N(C)C)C2O)[C@](C)(OC)C[C@@H](C)CN[C@H](C)[C@H]2N(CCCCn3cc(-c4ccccn4)nn3)C(=O)O[C@]12C (stereo partly shown) [FSM-20738] | 0.5 to 1 µg/mL (≈ 0.601 to 1.2 µM) | > 32 µg/mL | 1 µg/mL (≈ 1.2 µM) | > 32 µg/mL | 1 µg/mL (≈ 1.2 µM) | 1 µg/mL (≈ 1.2 µM) | 2 µg/mL (≈ 2.4 µM) | 0.0156 to 0.25 µg/mL (≈ 0.0187 to 0.3 µM) |  | 0.5 to 8 µg/mL (≈ 0.601 to 9.62 µM) |  | > 32 µg/mL | > 32 µg/mL | 0.5 to 8 µg/mL (≈ 0.601 to 9.62 µM) | 4 to 32 µg/mL (≈ 4.81 to 38.5 µM) | 0.0625 to 1 µg/mL (≈ 0.0751 to 1.2 µM) | 8 µg/mL (≈ 9.62 µM) | 1 µg/mL (≈ 1.2 µM) | 0.0625 µg/mL (≈ 0.0751 µM) | 0.25 µg/mL (≈ 0.3 µM) | MIC [20]: 4 µg/mL (≈ 4.81 µM); MIC [28]: 1 µg/mL (≈ 1.2 µM); MIC [29]: 8 µg/mL (≈ 9.62 µM); MIC [21]: 8 µg/mL (≈ 9.62 µM); MIC [22, 31]: 0.5 µg/mL (≈ 0.601 µM); MIC [22, 32]: > 32 µg/mL; MIC [22, 33]: 0.5 µg/mL (≈ 0.601 µM); MIC [22, 34]: 1 µg/mL (≈ 1.2 µM); MIC [23, 35]: 2 µg/mL (≈ 2.4 µM); MIC [23, 36]: > 32 µg/mL; MIC [23, 37]: > 32 µg/mL; MIC ([23]; read-out: MIC S. pneumonae (160)): ≤ 0.0625 µg/mL; MIC [23, 38]: ≤ 0.0625 µg/mL; MIC [24]: 0.125 µg/mL (≈ 0.15 µM); MIC [25]: 32 µg/mL (≈ 38.5 µM); MIC [26]: 4 µg/mL (≈ 4.81 µM); MIC [27, 39]: 0.5 µg/mL (≈ 0.601 µM); MIC [27, 40]: 4 µg/mL (≈ 4.81 µM)
